Test system: A2780 human ovarian cancer cells
Test: In vitro cell proliferation assay (CellTiter-Glo)
Assay type: cell-based
Details: 72 hours treatment
Experimental: A2780 human ovarian and MCF7 human breast cancer cells (1250 cells/well) were seeded in white 384 well-plates in complete medium (RPMI 1640 or EMEM plus 10% Fetal bovine serum) and treated with compounds dissolved in 0.1% DMSO, 24 h after seeding. The cells were incubated at 37° C. and 5% CO2 and after 72 hours the plates were processed using CellTiter-Glo assay (Promega) following the manufacturer's instruction. CellTiter-Glo is a homogenous method based on the quantification of the ATP present, an indicator of metabolitically active cells. ATP is quantified using a system based on luciferase and D-luciferin resulting into light generation. The luminescent signal is proportional to the number of cells present in culture.
Briefly 25 μl/well reagent solution were added to each well and after 5 minutes shacking microplates were red by Envision (PerkinElmer) luminometer. The luminescent signal was proportional to the number of cells present in culture.
Inhibitory activity was evaluated comparing treated versus control data using Assay Explorer (MDL) program. IC50 was calculated using sigmoidal interpolation curve.

Point of comparison: `CCc1cccc(CC)c1NC(=O)c1nn(C)c2c1CCc1cnc(Nc3ccc(N4CCN(C)CC4)cc3OC(F)(F)F)nc1-2` [Compound 3, N-(2,6-diethylphenyl)-1-methyl-8-{[4-(4-methylpiperazin-1-yl)-2-(trifluoromethoxy)phenyl]amino}-4,5-dihydro-1H-pyrazolo[4,3-h]quinazoline-3-carboxamide], IC50 350 nM. Against it:
- CCc1cccc(CC)c1NC(=O)c1nn(C)c2c1CCc1cnc(Nc3ccc(C(=O)NC4CCN(C)CC4)cc3OC)nc1-2 [Compound 2, N-(2,6-diethylphenyl)-8-({2-methoxy-4-[(1-methylpiperidin-4-yl)carbamoyl]phenyl}amino)-1-methyl-4,5-dihydro-1H-pyrazolo[4,3-h]quinazoline-3-carboxamide] — 2.3-fold lower, 150 nM
- CCc1cccc(CC)c1NC(=O)c1nn(C)c2c1CCc1cnc(NC3CCN(C(=O)CCNC)CC3)nc1-2 [Compound 66, N-(2,6-diethylphenyl)-1-methyl-8-{[1-(N-methyl-beta-alanyl)piperidin-4-yl]amino}-4,5-dihydro-1H-pyrazolo[4,3-h]quinazoline-3-carboxamide] — 1.9-fold higher, 650 nM
- CCc1cccc(CC)c1NC(=O)c1nn(C)c2c1CCc1cnc(NC3CCN(S(C)(=O)=O)CC3)nc1-2 [Compound 57, N-(2,6-diethylphenyl)-1-methyl-8-{[1-(methylsulfonyl)piperidin-4-yl]amino}-4,5-dihydro-1H-pyrazolo[4,3-h]quinazoline-3-carboxamide] — 2.7-fold lower, 130 nM
- CCc1cccc(CC)c1NC(=O)c1nn(C)c2c1CCc1cnc(Nc3ccc(C(N)=O)cc3OC)nc1-2 [Compound 13, 8-[(4-carbamoyl-2-methoxyphenyl)amino]-N-(2,6-diethylphenyl)-1-methyl-4,5-dihydro-1H-pyrazolo[4,3-h]quinazoline-3-carboxamide] — 3.5-fold lower, 100 nM
- CCc1cccc(CC)c1NC(=O)c1nn(C)c2c1CCc1cnc(Nc3ccc(N4CCN(C)CC4)cc3OC)nc1-2 [Compound 5, N-(2,6-diethylphenyl)-8-{[2-methoxy-4-(4-methylpiperazin-1-yl)phenyl]amino}-1-methyl-4,5-dihydro-1H-pyrazolo[4,3-h]quinazoline-3-carboxamide] — 3.5-fold lower, 100 nM
- Cn1nc(C(=O)N(O)C2CCCCC2)c2c1-c1nc(NC3CCCC3)ncc1CC2 [Prior art compound, N-cyclohexyl-8-(cyclopentylamino)-N-hydroxy-1-methyl-4,5-dihydro-1H-pyrazolo[4,3-h]quinazoline-3-carboxamide, reference compound] — 9.7-fold higher, 3400 nM
- CCc1cccc(CC)c1NC(=O)c1nn(C)c2c1CCc1cnc(NC3CCN(S(=O)(=O)CCNC)CC3)nc1-2 [Compound 56, N-(2,6-diethylphenyl)-1-methyl-8-[(1-{[2-(methylamino)ethyl]sulfonyl}piperidin-4-yl)amino]-4,5-dihydro-1H-pyrazolo[4,3-h]quinazoline-3-carboxamide] — 2.3-fold lower, 150 nM
- CCc1cccc(CC)c1NC(=O)c1nn(C)c2c1CCc1cnc(Nc3ccc(N(C)CCCN(C)C)cc3OC)nc1-2 [Compound 7, N-(2,6-diethylphenyl)-8-[(4-{[3-(dimethylamino)propyl](methyl)amino}-2-methoxyphenyl)amino]-1-methyl-4,5-dihydro-1H-pyrazolo[4,3-h]quinazoline-3-carboxamide] — 2.5-fold lower, 140 nM
